From the NIST ThermoML archive (doi:10.1021/je1009976)

Experiment: xn = mol fraction of the nth substance listed
Conditions: 101 kPa, Liquid; for viscosity: Capillary tube (Ostwald / Ubbelohde) method; for mass density: Pycnometric method

OCCOCCO [diethylene glycol] + O
Conditions	mass density, 303.15 K [kg/m3]	mass density, 308.15 K [kg/m3]	mass density, 313.15 K [kg/m3]	mass density, 318.15 K [kg/m3]	mass density, 323.15 K [kg/m3]	viscosity, 303.15 K [mPa·s]	viscosity, 308.15 K [mPa·s]	viscosity, 313.15 K [mPa·s]	viscosity, 318.15 K [mPa·s]	viscosity, 323.15 K [mPa·s]
x1 = 0.05006	1028.38	1026.09	1023.67	1021.08	1018.36	1.556	1.37	1.222	1.091	0.985
x1 = 0.1016	1051.83	1048.94	1046.02	1043.03	1039.94	2.582	2.242	1.962	1.729	1.535
x1 = 0.1512	1067.99	1065.34	1062.04	1058.72	1055.2	3.83	3.286	2.833	2.459	2.161
x1 = 0.2012	1078.71	1075.25	1071.77	1068.24	1064.5	5.261	4.448	3.806	3.286	2.846
x1 = 0.2477	1086.55	1082.95	1079.42	1075.76	1072.18	6.653	5.591	4.739	4.052	3.506
x1 = 0.298	1092.27	1088.52	1084.97	1081.58	1077.47	8.301	6.91	5.82	4.962	4.252
x1 = 0.3505	1096.22	1092.42	1088.68	1084.97	1081.16	9.851	8.154	6.821	5.768	4.929
x1 = 0.4483	1101.17	1097.58	1093.68	1089.91	1086.1	12.54	10.29	8.514	7.148	6.071
x1 = 0.5421	1103.74	1100.11	1096.37	1092.91	1088.98	15.06	12.28	10.14	8.478	7.143
x1 = 0.6518	1106.25	1102.58	1098.97	1095.29	1091.34	17.46	14.11	11.63	9.672	8.114
x1 = 0.7525	1107.78	1103.95	1100.25	1096.58	1093.18	19.3	15.64	12.82	10.65	8.937
x1 = 0.7864	1107.94	1104.26	1100.56	1096.89	1093.37	19.9	16.12	13.23	10.96	9.19
x1 = 0.8499	1108.55	1104.93	1101.32	1097.62	1093.91	20.61	16.74	13.73	11.42	9.461
x1 = 0.9005	1108.84	1105.16	1101.55	1097.87	1094.19	21.31	17.23	14.08	11.69	9.799
x1 = 0.9503	1109.66	1105.58	1101.98	1098.33	1094.55	21.74	17.53	14.41	11.92	9.999
x1 = 1	1109.48	1105.72	1102.11	1098.35	1094.94	22.16	17.93	14.71	12.19	10.19
